Patent publication US10597388B2, “Pyridazinone herbicides” (FMC CORPORATION, priority 2014, dated 2020)

Columns and labels:
Type in all cases: in vivo
[1] = test system: chickweed (common chickweed, Stellaria media); assay: Test C greenhouse herbicide test, postemergence
Method in brief: (§1)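 Plants grown in potting mix of peat moss, vermiculite, wetting agent and starter nutrients were sprayed postemergence at 2 to 18 cm height (1- to 4-leaf stage). After 13 to 15 d in the greenhouse, injury was visually rated against untreated controls on a 0–100 scale (0 no effect, 100 complete control).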

kochia (Kochia scoparia) = assay: Test C greenhouse herbicide test, postemergence
Method in brief: as §1

[2] = test system: oat, wild (wild oat, Avena fatua); assay: Test C greenhouse herbicide test, postemergence
Method in brief: as §1

[3] = test system: galium (catchweed bedstraw, Galium aparine); assay: Test A greenhouse herbicide test, postemergence
Method in brief: (§2)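 Seedlings in a loam soil and sand mix received formulated compound postemergence at the one- to two-leaf stage. Greenhouse holding lasts approximately 10 d, then injury is scored visually relative to untreated plants, 0 meaning no effect and 100 complete control.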

[4] = test system: blackgrass (Alopecurus myosuroides); assay: Test A greenhouse herbicide test, postemergence
Method in brief: as §2

[5] = test system: ryegrass, Italian (Italian ryegrass, Lolium multiflorum); assay: Test C greenhouse herbicide test, pre- and postemergence
Method in brief: (§3)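 Percent-control ratings (0 none, 100 complete) came from visual comparison with controls held alongside in the greenhouse for 13–15 d. Treatments covered soil application at sowing and foliar application to young plants 2–18 cm tall.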

[6] = test system: velvetleaf (Abutilon theophrasti); assay: as above
Method in brief: as §3

[7] = test system: barnyardgrass (Echinochloa crus-galli); assay: as above
Method in brief: as §3

soybean (Glycine max) = assay: as above
Method in brief: as §3

[8] = test system: galium (catchweed bedstraw, Galium aparine); assay: as above
Method in brief: as §3

[9] = test system: pigweed (Amaranthus retroflexus); assay: as above
Method in brief: as §3

[10] = test system: blackgrass (Alopecurus myosuroides); assay: as above
Method in brief: as §3

[11] = test system: nutsedge, yellow (yellow nutsedge, Cyperus esculentus); assay: as above
Method in brief: as §3

[12] = test system: ragweed (common ragweed, Ambrosia elatior); assay: as above
Method in brief: as §3

[13] = Postemergence, 31 g ai/ha, 0 to 100 scale (0 no effect, 100 complete control)
[14] = Postemergence, 125 g ai/ha, scale 0 to 100, 0 is no effect, 100 is complete control
[15] = Postemergence, 250 g ai/ha, scale 0 to 100, 0 no effect, 100 complete control, 13 to 15 d
[16] = postemergence, 62 g ai/ha, scale 0 to 100, 0 no effect, 100 complete control
[17] = 125 g ai/ha, 0 to 100 scale where 0 is no effect and 100 is complete control
[18] = 500 g ai/ha, 0 to 100 scale, 0 is no effect, 100 is complete control
[19] = Preemergence, 31 g ai/ha, scale 0 to 100, 0 is no effect, 100 is complete control
[20] = Preemergence, 62 g ai/ha, scale 0 to 100, 0 is no effect, 100 is complete control
[21] = Preemergence, 125 g ai/ha, scale 0 to 100, 0 is no effect, 100 is complete control
[22] = Preemergence, 250 g ai/ha, scale 0 to 100, 0 no effect, 100 complete control
[23] = Postemergence, 31 g ai/ha, scale 0 to 100 (0 no effect, 100 complete control)
[24] = Postemergence, 62 g ai/ha, 0 to 100 scale (0 no effect, 100 complete control)
[25] = Postemergence, 250 g ai/ha, scale 0 to 100, 0 is no effect, 100 is complete control
[26] = postemergence, 125 g ai/ha, scale 0 to 100, 0 no effect, 100 complete control
[27] = 125 g ai/ha, 0 to 100 scale, 0 no effect, 100 complete control
[28] = 500 g ai/ha, visual rating after approx. 10 d, 0 to 100 scale (0 no effect, 100 complete control)

CCc1sc2c(C)cc(C)cc2c1-c1c(O)c(C)nn(C)c1=O [Compound 57]
Chickweed plant response rating [1, 13]: 90 | Plant response rating, Chickweed [1, 14]: 95 | Plant response rating, Chickweed [1, 15]: 100 | Chickweed plant response rating [1, 16]: 95 | Kochia plant response rating (kochia (Kochia scoparia); [13]): 50 | Plant response rating, Kochia (kochia (Kochia scoparia); [14]): 70 | Plant response rating, Kochia (kochia (Kochia scoparia); [15]): 95 | Kochia plant response rating (kochia (Kochia scoparia); [16]): 65 | Oat, Wild plant response rating [2, 13]: 20 | Plant response rating, Oat, Wild [2, 14]: 45 | Plant response rating, Oat, Wild [2, 15]: 60 | Oat, Wild plant response rating [2, 16]: 35 | Plant response rating, Galium [3, 17]: 100 | Galium plant response rating [3, 18]: 100 | Plant response rating, Blackgrass [4, 17]: 30 | Blackgrass plant response rating [4, 18]: 60 | Ryegrass, Italian plant response rating [5, 13]: 25 | Plant response rating, Ryegrass, Italian [5, 14]: 50 | Plant response rating, Ryegrass, Italian [5, 15]: 60 | Plant response rating, Ryegrass, Italian [5, 19]: 45 | Plant response rating, Ryegrass, Italian [5, 20]: 65 | Plant response rating, Ryegrass, Italian [5, 21]: 70 | Ryegrass, Italian plant response rating [5, 22]: 85 | Ryegrass, Italian plant response rating [5, 16]: 30 | Velvetleaf plant response rating [6, 13]: 90 | Plant response rating, Velvetleaf [6, 14]: 100 | Plant response rating, Velvetleaf [6, 15]: 100 | Plant response rating, Velvetleaf [6, 19]: 50 | Plant response rating, Velvetleaf [6, 20]: 80 | Plant response rating, Velvetleaf [6, 21]: 95 | Velvetleaf plant response rating [6, 22]: 100 | Velvetleaf plant response rating [6, 16]: 95 | Barnyardgrass plant response rating [7, 13]: 90 | Plant response rating, Barnyardgrass [7, 14]: 95 | Plant response rating, Barnyardgrass [7, 15]: 98 | Plant response rating, Barnyardgrass [7, 19]: 5 | Plant response rating, Barnyardgrass [7, 20]: 90 | Plant response rating, Barnyardgrass [7, 21]: 100 | Barnyardgrass plant response rating [7, 22]: 100 | Barnyardgrass plant response rating [7, 16]: 95 | Soybean plant response rating (soybean (Glycine max); [13]): 0 | Plant response rating, Soybean (soybean (Glycine max); [14]): 0 | Plant response rating, Soybean (soybean (Glycine max); [15]): 5 | Plant response rating, Soybean (soybean (Glycine max); [19]): 0 | Plant response rating, Soybean (soybean (Glycine max); [20]): 0 | Plant response rating, Soybean (soybean (Glycine max); [21]): 0 | Soybean plant response rating (soybean (Glycine max); [22]): 0 | Soybean plant response rating (soybean (Glycine max); [16]): 0 | Galium plant response rating [8, 13]: 95 | Plant response rating, Galium [8, 14]: 95 | Plant response rating, Galium [8, 15]: 100 | Plant response rating, Galium [8, 19]: 80 | Plant response rating, Galium [8, 20]: 90 | Plant response rating, Galium [8, 21]: 95 | Galium plant response rating [8, 22]: 98 | Galium plant response rating [8, 16]: 95 | Pigweed plant response rating [9, 13]: 60 | Plant response rating, Pigweed [9, 14]: 85 | Plant response rating, Pigweed [9, 15]: 100 | Plant response rating, Pigweed [9, 19]: 100 | Plant response rating, Pigweed [9, 20]: 100 | Plant response rating, Pigweed [9, 21]: 100 | Pigweed plant response rating [9, 22]: 100 | Pigweed plant response rating [9, 16]: 80 | Blackgrass plant response rating [10, 13]: 5 | Plant response rating, Blackgrass [10, 14]: 5 | Plant response rating, Blackgrass [10, 15]: 25 | Plant response rating, Blackgrass [10, 19]: 30 | Plant response rating, Blackgrass [10, 20]: 60 | Plant response rating, Blackgrass [10, 21]: 70 | Blackgrass plant response rating [10, 22]: 80 | Blackgrass plant response rating [10, 16]: 5 | Nutsedge, Yellow plant response rating [11, 13]: 90 | Plant response rating, Nutsedge, Yellow [11, 14]: 90 | Plant response rating, Nutsedge, Yellow [11, 15]: 90 | Plant response rating, Nutsedge, Yellow [11, 19]: 10 | Plant response rating, Nutsedge, Yellow [11, 20]: 30 | Plant response rating, Nutsedge, Yellow [11, 21]: 90 | Nutsedge, Yellow plant response rating [11, 22]: 95 | Nutsedge, Yellow plant response rating [11, 16]: 90 | Ragweed plant response rating [12, 13]: 60 | Plant response rating, Ragweed [12, 14]: 85 | Plant response rating, Ragweed [12, 15]: 95 | Plant response rating, Ragweed [12, 19]: 70 | Plant response rating, Ragweed [12, 20]: 95 | Plant response rating, Ragweed [12, 21]: 100 | Ragweed plant response rating [12, 22]: 100 | Ragweed plant response rating [12, 16]: 90

Cc1nn(C)c(=O)c(-c2c([N+](=O)[O-])ccc3ccccc23)c1O [Compound 165]
Plant response rating, Chickweed [1, 23]: 70 | Chickweed plant response rating [1, 24]: 90 | Plant response rating, Chickweed [1, 25]: 98 | Chickweed plant response rating [1, 26]: 95 | Plant response rating, Kochia (kochia (Kochia scoparia); [23]): 45 | Kochia plant response rating (kochia (Kochia scoparia); [24]): 40 | Plant response rating, Kochia (kochia (Kochia scoparia); [25]): 90 | Kochia plant response rating (kochia (Kochia scoparia); [26]): 85 | Plant response rating, Oat, Wild [2, 23]: 40 | Oat, Wild plant response rating [2, 24]: 45 | Plant response rating, Oat, Wild [2, 25]: 70 | Oat, Wild plant response rating [2, 26]: 65 | Plant response rating, Galium [3, 27]: 100 | Plant response rating, Galium [3, 28]: 100 | Plant response rating, Blackgrass [4, 27]: 20 | Plant response rating, Blackgrass [4, 28]: 50 | Plant response rating, Ryegrass, Italian [5, 23]: 40 | Ryegrass, Italian plant response rating [5, 24]: 50 | Plant response rating, Ryegrass, Italian [5, 25]: 70 | Ryegrass, Italian plant response rating [5, 26]: 55 | Plant response rating, Velvetleaf [6, 23]: 20 | Velvetleaf plant response rating [6, 24]: 25 | Plant response rating, Velvetleaf [6, 25]: 50 | Velvetleaf plant response rating [6, 26]: 20 | Plant response rating, Barnyardgrass [7, 23]: 10 | Barnyardgrass plant response rating [7, 24]: 15 | Plant response rating, Barnyardgrass [7, 25]: 25 | Barnyardgrass plant response rating [7, 26]: 25 | Plant response rating, Soybean (soybean (Glycine max); [23]): 10 | Soybean plant response rating (soybean (Glycine max); [24]): 10 | Plant response rating, Soybean (soybean (Glycine max); [25]): 15 | Soybean plant response rating (soybean (Glycine max); [26]): 15 | Plant response rating, Galium [8, 23]: 85 | Galium plant response rating [8, 24]: 85 | Plant response rating, Galium [8, 25]: 100 | Galium plant response rating [8, 26]: 98 | Plant response rating, Pigweed [9, 23]: 75 | Pigweed plant response rating [9, 24]: 70 | Plant response rating, Pigweed [9, 25]: 85 | Pigweed plant response rating [9, 26]: 75 | Plant response rating, Blackgrass [10, 23]: 5 | Blackgrass plant response rating [10, 24]: 15 | Plant response rating, Blackgrass [10, 25]: 25 | Blackgrass plant response rating [10, 26]: 20 | Plant response rating, Nutsedge, Yellow [11, 23]: 20 | Nutsedge, Yellow plant response rating [11, 24]: 30 | Plant response rating, Nutsedge, Yellow [11, 25]: 35 | Nutsedge, Yellow plant response rating [11, 26]: 25 | Plant response rating, Ragweed [12, 23]: 40 | Ragweed plant response rating [12, 24]: 55 | Plant response rating, Ragweed [12, 25]: 85 | Ragweed plant response rating [12, 26]: 75
